The source of these data is US20150125403A1, “PERSONAL CARE AND COSMETIC COMPOSITIONS COMPRISING RENEWABLY-BASED, BIODEGRADABLE 1,3-PROPANEDIOL” (DuPont Tate & Lyle Bio Products Company, LLC, priority 2006, published 2015).

The nature of series [1]: viscosity of the composition. Type of series: physicochemical. Conditions: cosmetic emulsion of Example 1 made with the named glycol instead of Bio-PDO. The procedure: Brookfield Model RV−Spindle 5 at 20 rpm for 1 minute (factor×200)
Brookfield Model RV−Spindle T at 5 rpm for 1 minute (factor×10,000)

In series [2] the test system is human skin. The series is described as follows: human skin patch test with approximately 100 subjects. Type of series: in vivo. Particulars: 5, 25, and 50% PDO. An excerpt:
(§1) Based on these studies PDO is not expected to be a skin irritant or sensitizer in humans.

For series [3], the system named is human skin. The series is described as follows: second human skin patch test. Type of series: in vivo. Conditions: 25, 50, and 75% (pH 7).
Text: as §1

Structures are written as SMILES.

Regarding `CC(O)CCO` (centres unmarked) [1,3-butylene glycol], the “viscosity of the cosmetic emulsion containing the glycol” value (from here on “viscosity”) in series [1] was found to be 6000 cps.

For `CC(CO)CO` [2-methyl-1,3-propanediol], the “viscosity” value in series [1] turned out to be 9600 cps.

With `OCCCO` [PDO, 1,3-propanediol], the “skin reactions indicative of irritation or sensitization” value in series [2] is given as “did not cause any skin reactions indicative of irritation or sensitization”.

For the compound `CC(O)CO` (centres unmarked) [propylene glycol, 1,2-propanediol], the “viscosity” value in series [1] is 12600 cps. Moreover, in series [3], the “patch test irritation and cumulative irritation of human skin” value was “patch test irritants and cumulative irritants for human skin”.
